# Source: ChEMBL document CHEMBL1141903, “Synthesis and evaluation of CCR5 antagonists containing modified 4-piperidinyl-2-phenyl-1-(phenylsulfonylamino)-butane” (Bioorg Med Chem Lett, 2005)
# pIC50: −log10 of the molar value.
# Tests used:
# [1] = target: C-C chemokine receptor type 5 (Homo sapiens, UniProt P51681); assay: Inhibitory concentration against human C-C chemokine receptor type 5 in CHO cells with [125I]-MIP-1 alpha radioligand; format: cell-based
# [2] = system: Human immunodeficiency virus 1; assay: Antiviral activity in an in vitro HIV replication assay; format: functional, organism-based
# Chain of C-C chemokine receptor type 5 (P51681 whole entry): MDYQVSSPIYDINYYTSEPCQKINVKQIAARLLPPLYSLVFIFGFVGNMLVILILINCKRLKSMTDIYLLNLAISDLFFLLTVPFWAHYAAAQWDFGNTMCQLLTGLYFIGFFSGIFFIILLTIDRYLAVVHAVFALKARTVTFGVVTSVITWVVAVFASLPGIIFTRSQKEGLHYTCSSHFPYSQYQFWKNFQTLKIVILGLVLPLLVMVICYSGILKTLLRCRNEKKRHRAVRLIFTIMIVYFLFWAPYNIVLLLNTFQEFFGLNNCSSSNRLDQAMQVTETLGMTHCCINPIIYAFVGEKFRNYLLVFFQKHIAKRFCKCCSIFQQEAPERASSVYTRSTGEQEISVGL
Compound,pIC50 [1],IC90 ([2]; Human immunodeficiency virus 1),IC90 [2]
CN(C[C@@H](CCN1CCC(N2C[C@H](c3ccccc3)OC2=O)CC1)c1ccccc1)S(=O)(=O)c1ccccc1,< 7.00,–,–
C[C@H]1[C@@H](c2ccccc2)OC(=O)N1C1CCN(CC[C@H](CN(C)S(=O)(=O)c2ccccc2)c2ccccc2)CC1,7.44,–,–
C[C@@H]1[C@@H](c2ccccc2)OC(=O)N1C1CCN(CC[C@H](CN(C)S(=O)(=O)c2ccccc2)c2ccccc2)CC1,6.46,–,–
CN(C[C@@H](CCN1CCC(N2C[C@@H](c3ccccc3)OC2=O)CC1)c1ccccc1)S(=O)(=O)c1ccccc1,7.50,–,–
CN(C[C@@H](CCN1CCC2C(CCN2C(=O)OC(C)(C)C)C1)c1ccccc1)S(=O)(=O)c1ccccc1 (some centres undefined),7.80,–,–
CN(C[C@@](C)(CCN1CCC2C(CCC(=O)N2Cc2ccccc2)C1)c1ccccc1)S(=O)(=O)c1ccccc1 (some centres undefined),8.00,333 nM,–
C=CCN(C(=O)OCc1ccc([N+](=O)[O-])cc1)C1CCN(CC[C@](C)(CN(C)S(=O)(=O)c2ccccc2)c2ccccc2)CC1,9.00,3 nM,–
CN(C[C@](C)(CCN1CCC2C(CCN2C(=O)OCc2ccc([N+](=O)[O-])cc2)C1)c1ccccc1)S(=O)(=O)c1ccccc1 (mixture of isomers),8.44,111 nM,–
CN(C[C@@](C)(CCN1CCC2C(CCN2C(=O)OCc2ccccc2)C1)c1ccccc1)S(=O)(=O)c1ccccc1 (mixture of isomers),8.05,> 300 nM,–
CN(C[C@@](C)(CCN1CCC2C(CCC(=O)N2Cc2ccc([N+](=O)[O-])cc2)C1)c1ccccc1)S(=O)(=O)c1ccccc1 (mixture of isomers),8.28,333 nM,–
CN1C(=O)CCC2CN(CC[C@](C)(CN(C)S(=O)(=O)c3ccccc3)c3ccccc3)CCC21 (mixture of isomers),7.55,> 300 nM,–
CN(C[C@@](C)(CCN1CCC2C(CCN2C(=O)OC(C)(C)C)C1)c1ccccc1)S(=O)(=O)c1ccccc1 (mixture of isomers),7.96,111 nM,–
CN(C[C@@](C)(CCN1CCC2NCCC2C1)c1ccccc1)S(=O)(=O)c1ccccc1 (mixture of isomers),< 5.70,–,–
CN(C[C@@](C)(CCN1CCC2C(CCN2C(=O)Cc2ccccc2)C1)c1ccccc1)S(=O)(=O)c1ccccc1 (mixture of isomers),8.19,111 nM,–
"CN(CC(C)(CCN1CCC2C(CCN2C(=O)OC(C)(C)C)C1)c1ccccc1)S(=O)(=O)c1ccccc1 (single isomer, unassigned; isomer A)",< 5.70,–,–
"CN(CC(C)(CCN1CCC2C(CCN2C(=O)OCc2ccc([N+](=O)[O-])cc2)C1)c1ccccc1)S(=O)(=O)c1ccccc1 (single isomer, unassigned; isomer A)",7.68,–,300 nM
"CN(CC(C)(CCN1CCC2C(CCN2C(=O)OC(C)(C)C)C1)c1ccccc1)S(=O)(=O)c1ccccc1 (single isomer, unassigned; isomer B)",8.70,100 nM,–
"CN(CC(C)(CCN1CCC2C(CCN2C(=O)OCc2ccc([N+](=O)[O-])cc2)C1)c1ccccc1)S(=O)(=O)c1ccccc1 (single isomer, unassigned; isomer B)",8.70,–,33 nM
